Source: patent US20090143279A1 (priority 2007, published 2009)
Where a name gives a salt, the structure may show the parent alone. Read-outs that look alike come from different tables or passages of the source. Where a SMILES comes first, the peptide text is derived from it. The star is where a group is joined. Tfa = O=C(C(F)(F)F)*

Tests used:
[1] = tested on: OXPHOS gene expression; type: cell-based, mouse
[2] = tested on: C2C12 myotubes
[3] = tested on: mitochondrial membrane potential; type: cell-based, mouse
[4] = tested on: cytochrome c; type: cell-based, mouse
[5] = tested on: mtOXPHOS transcripts; type: cell-based, mouse; settings: for mito-OXPHOS Z: Table 7, C2C12 myotubes, 48 h, composite Z-score
[6] = tested on: reactive oxygen species; type: cell-based, mouse
[7] = tested on: cellular dehydrogenase activity
[8] = tested on: nuOXPHOS transcripts; type: cell-based, mouse; settings: for nucOXPHOS Z: Table 7, C2C12 myotubes, 48 h, composite Z-score
[9] = composite Z-score vs mock-treated (DMSO) wells, concentration of each compound in μM
[10] = composite Z-score vs mock-treated (DMSO) wells, Conc 20 μM
[11] = composite Z-score vs DMSO, Conc 20 μM
[12] = normalized composite Z-score vs mock-treated (DMSO) wells, Conc 20 μM
[13] = composite Z-score vs DMSO wells, Conc 20 μM

CC[C@H](C)[C@H](NC)C(=O)O [N-methylisoleucine]
GE-HTS [1]: 0.772 | Viability [2]: 1.026 | ΔΨm [3]: −0.210 | cyt c [4]: −0.451 | mitoOX [5]: 0.850 | ROS [6]: 0.300 | MTT [7]: 0.372 | nucOX [8]: 0.676

COc1cc2c(cc1OC)-c1cc3ccc(OC)c(OC)c3c[n+]1CC2 [Palmatine, reference compound]
GE-HTS [1, 9]: 1.822 | Viability [2, 9]: −1.028 | ΔΨm [3, 9]: −0.823 | cyt c [4, 9]: −0.084 | mito-OXPHOS Z [5]: 1.83 | mitoOX [5, 9]: 1.833 | ROS [6, 9]: 0.511 | MTT [7, 9]: −1.222 | nucOXPHOS Z [8]: 1.64 | nucOX [8, 9]: 1.636

C=C1[C@@H]([C@@]2(C)[C@@H](OC(C)=O)CC(=O)O[C@](C)(COC(C)=O)[C@@H]2C(=O)OC)[C@@H](OC=O)[C@H](OC(=O)[C@H](O)[C@H](C)CC)[C@@]2(C)[C@H](c3ccoc3)CC(=O)[C@]12O [Prieurianin, reference compound]
GE-HTS [1, 10]: 2.020 | Viability [2, 10]: −0.894 | ΔΨm [3, 10]: 1.108 | cyt c [4, 10]: −1.620 | mito-OXPHOS Z [5]: 1.93 | mitoOX [5, 10]: 1.931 | ROS [6, 10]: −1.358 | MTT [7, 10]: −1.263 | nucOXPHOS Z [8]: 1.90 | nucOX [8, 10]: 1.896

COc1ccc(C[C@H](N)C(=O)N[C@H]2[C@@H](O)[C@H](n3cnc4c(N(C)C)ncnc43)O[C@@H]2CO)cc1 [Puromycin, reference compound]
GE-HTS [1, 11]: −3.348 | Viability [2, 11]: −5.718 | ΔΨm [3, 11]: −3.989 | cyt c [4, 11]: −5.573 | mito-OXPHOS Z [5]: 1.24 | mitoOX [5, 11]: −1.331 | ROS [6, 11]: −2.665 | MTT [7, 11]: −5.624 | nucOXPHOS Z [8]: −2.80 | nucOX [8, 11]: −4.017

N[C@@H](CCC(=O)N[C@@H](CSC(CC(=O)O)C(=O)O)C(=O)NCC(=O)O)C(=O)O (stereo partly drawn) [S-(1,2-dicarboxyethyl)glutathione]
GE-HTS [1, 11]: −0.364 | Viability [2, 11]: −0.049 | ΔΨm [3, 11]: 0.038 | cyt c [4, 11]: −0.411 | mitoOX [5, 11]: −0.219 | ROS [6, 11]: 0.258 | MTT [7, 11]: −0.635 | nucOX [8, 11]: −0.400

CC(=O)O.CSC(=N)NCCC[C@H](N)C(=O)O [S-methyl-L-thiocitrulline acetate]
GE-HTS [1, 9]: 0.291 | Viability [2, 9]: 0.613 | ΔΨm [3, 9]: −0.542 | cyt c [4, 9]: 0.533 | mitoOX [5, 9]: 0.173 | ROS [6, 9]: 0.052 | MTT [7, 9]: −0.262 | nucOX [8, 9]: 0.325

CC(C)[C@H](NC(=O)[C@H](Cc1ccc(O)cc1)NC(=O)[C@@H](NC(=O)C(F)(F)F)C(C)C)C(=O)O [TFA-Val-Tyr-Val-OH] (Tfa-Val-Tyr-Val-OH)
GE-HTS [1, 9]: 0.294 | Viability [2, 9]: −0.143 | ΔΨm [3, 9]: −0.510 | cyt c [4, 9]: −0.785 | mitoOX [5, 9]: −0.008 | ROS [6, 9]: 0.471 | MTT [7, 9]: −1.019 | nucOX [8, 9]: 0.415

C=C/C(C)=C\CC1C(C)(O)CCC2C(C)(C)CCCC21C (stereo not shown) [abienol]
GE-HTS [1, 12]: 0.498 | Viability [2, 12]: −0.199 | ΔΨm [3, 12]: 0.334 | cyt c [4, 12]: 0.211 | mitoOX [5, 12]: 1.214 | ROS [6, 12]: 2.467 | MTT [7, 12]: 0.338 | nucOX [8, 12]: 0.091

CN[C@@H](Cc1c[nH]c2ccccc12)C(=O)O [abrine]
GE-HTS (composite Z-score) [1]: 0.459 | Viability (composite Z-score) [2]: 0.206 | ΔΨm (composite Z-score) [3]: −0.332 | cyt c (composite Z-score) [4]: −0.094 | mitoOX (composite Z-score) [5]: 0.383 | ROS (composite Z-score) [6]: 1.698 | MTT (composite Z-score) [7]: −1.203 | nucOX (composite Z-score) [8]: 0.430

CC1=CC(=O)CC(C)(C)[C@@]1(O)/C=C/C(C)=C\C(=O)O [abscisic acid]
GE-HTS [1, 12]: 0.469 | Viability [2, 12]: 0.309 | ΔΨm [3, 12]: −0.565 | cyt c [4, 12]: 0.179 | mitoOX [5, 12]: 0.299 | ROS [6, 12]: −0.476 | MTT [7, 12]: −1.053 | nucOX [8, 12]: 0.509

CCCC(=O)Nc1ccc(OCC(O)CNC(C)C)c(C(C)=O)c1 (stereo not shown) [acebutolol]
GE-HTS [1, 13]: −0.511 | Viability [2, 13]: −0.271 | ΔΨm [3, 13]: 0.016 | cyt c [4]: −0.884 | cyt c [4, 13]: 0.214 | mitoOX [5, 13]: −0.254 | ROS [6, 13]: 1.061 | MTT [7, 13]: −0.548 | nucOX [8, 13]: −0.591

CC(=O)Nc1ccc(OC(=O)c2ccccc2O)cc1 [acetaminosalol]
GE-HTS [1, 13]: 0.083 | Viability [2, 13]: 0.144 | ΔΨm [3, 13]: −0.707 | cyt c [4, 13]: 0.465 | mitoOX [5, 13]: −0.060 | ROS [6, 13]: 0.308 | MTT [7, 13]: −0.142 | nucOX [8, 13]: 0.145
